11 compounds from ChEMBL document CHEMBL3632464, “The quorum-sensing inhibiting effects of stilbenoids and their potential structure-activity relationship” (2015) can be followed below.

Converted amounts (≈) assume the structure as drawn. The source made the active and inactive calls.

In assay [1] the test system is Chromobacterium violaceum. In words: Inhibition of Quorum sensing system in Chromobacterium violaceum CV026 after 24 hrs by agar-well diffusion method. (In agar diffusion tests the substance spreads into inoculated agar from a disc or well.)
Assay [2] relates to Chromobacterium violaceum. The experiment in a line: Antibacterial activity in Chromobacterium violaceum CV026 for 16 hrs. The class given is functional. Particulars: CV026, 16 h.
Assay [3] has as its system Chromobacterium violaceum. In words: Inhibition of Quorum sensing system in Chromobacterium violaceum CV026 assessed as inhibition of violacein synthesis at 25 to 150 uM after 18 hrs by spectrophotometric assay.
The subject of assay [4] is Chromobacterium violaceum. In words: Inhibition of Quorum sensing system in Chromobacterium violaceum CV026 assessed as inhibition of violacein synthesis at 150 uM after 18 hrs by spectrophotometric assay.
Assay [5] relates to Pseudomonas aeruginosa PAO1. The experiment in a line: Inhibition of Quorum sensing system in Pseudomonas aeruginosa PAO1 assessed as inhibition of swarming motility at 100 uM after 16 hrs.
Assay [6] deals with Pseudomonas aeruginosa. In words: Antibacterial activity in Pseudomonas aeruginosa PAO1 for 16 hrs. The class given is functional. The following applies: PAO1, 16 h.
The test system of assay [7] is Pseudomonas aeruginosa PAO1. The experiment in a line: Inhibition of Quorum sensing system in Pseudomonas aeruginosa PAO1 assessed as inhibition of pyocyanin production at 400 uM after 16 to 18 hrs by spectrophotometric assay.
For assay [8], the system named is Pseudomonas aeruginosa. The experiment in a line: Decrease in rhII gene expression in Pseudomonas aeruginosa PAO1 at 400 uM by RT-PCR analysis. The class given is functional, organism-based.
Assay [9] has as its system Pseudomonas aeruginosa. In words: Decrease in rhIR gene expression in Pseudomonas aeruginosa PAO1 at 400 uM by RT-PCR analysis. Format: functional, organism-based.
In assay [10] the test system is Pseudomonas aeruginosa. In words: Decrease in lasI gene expression in Pseudomonas aeruginosa PAO1 at 400 uM by RT-PCR analysis relative to control. Format: functional.
Assay [11] deals with Pseudomonas aeruginosa. The experiment in a line: Antibacterial activity in Pseudomonas aeruginosa PAO1 at 400 uM measured every 2 hrs for 24 hrs by microplate reader analysis. Format: functional, organism-based.
In assay [12] the test system is Chromobacterium violaceum. The experiment in a line: Inhibition of Quorum sensing system in Chromobacterium violaceum CV026 at 1 to 4 mg/ml after 24 hrs by agar-well diffusion method.
Assay [13] relates to Pseudomonas aeruginosa PAO1. The experiment in a line: Inhibition of Quorum sensing system in Pseudomonas aeruginosa PAO1 assessed as inhibition of pyocyanin production at sub-MIC concentration after 16 to 18 hrs by spectrophotometric assay.
The subject of assay [14] is Pseudomonas aeruginosa. In words: Decrease in lasR gene expression in Pseudomonas aeruginosa PAO1 at 400 uM by RT-PCR analysis. The class given is functional, organism-based.
The subject of assay [15] is Chromobacterium violaceum. In words: Inhibition of Quorum sensing system in Chromobacterium violaceum CV026 assessed as inhibition of violacein synthesis at 125 uM after 18 hrs by spectrophotometric assay.
The subject of assay [16] is Chromobacterium violaceum. The experiment in a line: Inhibition of Quorum sensing system in Chromobacterium violaceum CV026 assessed as violacein synthesis at 25 and 50 uM after 18 hrs by spectrophotometric assay.
The test system of assay [17] is Chromobacterium violaceum. The experiment in a line: Inhibition of Quorum sensing system in Chromobacterium violaceum CV026 assessed as inhibition of violacein synthesis at 75 uM after 18 hrs by spectrophotometric assay.
For assay [18], the system named is Chromobacterium violaceum. The experiment in a line: Antibacterial activity in Chromobacterium violaceum CV026 at 100 ug/well by agar-well diffusion method. Format: functional, organism-based.
Assay [19] concerns Chromobacterium violaceum. In words: Antibacterial activity in Chromobacterium violaceum CV026 at >50 ug/well by agar-well diffusion method. Format: functional, organism-based.
The test system of assay [20] is Chromobacterium violaceum. In words: Inhibition of Quorum sensing system in Chromobacterium violaceum CV026 assessed as inhibition of violacein synthesis at >100 uM after 18 hrs by spectrophotometric assay.
For assay [21], the system named is Chromobacterium violaceum. The experiment in a line: Inhibition of Quorum sensing system in Chromobacterium violaceum assessed as inhibition of violacein synthesis. Particulars: concentration not given here.
In assay [22] the test system is Chromobacterium violaceum. In words: Antibacterial activity in Chromobacterium violaceum CV026 at 0.6 mg/ml by agar-well diffusion method. The class given is functional, organism-based.

A word on the inhibition: it is how much of the control response was suppressed. In the case of `COc1ccc(CCc2cc(OC)c(O)c(OC)c2)cc1O`, the inhibition entry in assay [1] is “inactive”.

One may read the MIC as the smallest concentration in the dilution series that meets the test's criterion for growth inhibition. A high value points to weaker potency. With `Oc1cc(O)cc(/C=C/c2ccc(O)cc2O)c1` [OXYRESVERATROL], the values for the minimal inhibitory concentration (MIC) (in assay [2]; in the assay on Pseudomonas aeruginosa [6]) were 250 µg/mL (≈ 1020 µM) and > 1000 µg/mL, respectively. Further, the inhibition entry (in [3]; in assay [5]; in the assay on Pseudomonas aeruginosa [8]; in the assay on Pseudomonas aeruginosa [9]; in [12]; in assay [13]) was “Active” in each case. Besides, the inhibition entry in the assay on Pseudomonas aeruginosa [14] was “Active”. In addition, the figures for the inhibition in assay [4] and in assay [7] were 86% and 50.2%, respectively. Besides, in the assay on Pseudomonas aeruginosa [10], the “fold change (FC)” value stood at 3. In the assay on Pseudomonas aeruginosa [11], the outcome was inactive.

Regarding `Oc1cc(O)cc(/C=C/c2ccc(O)c(O)c2)c1` [PICEATANNOL], the minimal inhibitory concentration (MIC) in [2] is 250 µg/mL (≈ 1020 µM); against Pseudomonas aeruginosa [6] it was > 1000 µg/mL. Further, the values for the inhibition in assay [4], in [15] and in assay [7] were 73%, 46% and 37.1%, respectively. Also, the inhibition entry (in assay [5]; with Pseudomonas aeruginosa [8]; in [17]; in the assay with Pseudomonas aeruginosa [9]; in assay [12]; in [13]) was “Active” in each case. Besides, in the assay on Pseudomonas aeruginosa [14], the inhibition result is “Active”. In addition, the inhibition result in assay [16] is “inactive”. For the same compound, in the assay on Pseudomonas aeruginosa [10], the “fold change (FC)” value stood at 5. Also, the result in the assay on Pseudomonas aeruginosa [11] was inactive. The outcome in assay [18] was Active.

On to `COc1c(O)cc2ccc3c(OC)c(O)ccc3c2c1OC`, for which the inhibition entry in assay [1] was “inactive”.

Regarding `COc1ccc(CCc2cc(OC)c(OC)c(OC)c2)cc1OC`, the inhibition result in assay [1] is “inactive”.

`COc1cc(/C=C/c2ccc(O)cc2)cc(OC)c1`: the inhibition entry in assay [1] is “inactive”.

Regarding `COc1ccc(CCc2cc(O)cc(O)c2)cc1OC`, in [1], the inhibition entry is “inactive”.

For `Oc1ccc(/C=C/c2cc(O)cc(O)c2)cc1` [RESVERATROL], the minimal inhibitory concentration (MIC) in [2] was 150 µg/mL (≈ 657 µM); in the assay on Pseudomonas aeruginosa [6] it was > 1000 µg/mL. The inhibition entry (in assay [3]; in [5]; with Pseudomonas aeruginosa [8]; with Pseudomonas aeruginosa [9]; in assay [12]; in assay [13]) was “Active” throughout. Also, the inhibition result with Pseudomonas aeruginosa [14] is “Active”. Further, in assay [19], the result was Active. Moreover, the inhibition is 59.3% in assay [7], > 80% in assay [20] and 70% in [21]. In addition, the “fold change (FC)” value with Pseudomonas aeruginosa [10] is recorded as 2. In addition, the result with Pseudomonas aeruginosa [11] was inactive.

Consider `COc1cc2ccc3c(OC)c(O)ccc3c2c(OC)c1OC`, for which the inhibition result in assay [1] was “inactive”.

Turning to `COc1ccc(CCc2cc(OC)c(OC)c(OC)c2)cc1O`, the inhibition result in assay [1] was “inactive”.

Take GENTAMICIN: the outcome in assay [22] was Active.
